Experimental data from ChEMBL document CHEMBL1201862, “PubChem BioAssay data set” (2004).
Blank lines part the entries; values can stand above or below the molecule they belong to. The source made the active and inactive calls.

Assays:
[1] = biological target: T1, E3 ubiquitin-protein ligase XIAP (Homo sapiens, UniProt P98170); experiment: XIAP antagonists, biochemical, IAP family, fluorescence polarization (AID 1018); type: functional
[2] = biological target: T1, E3 ubiquitin-protein ligase XIAP; experiment: Counter Screen using XIAP-Bir3 for Chemical Antagonists of Bir1/2 domains of IAP-family anti-apoptotic proteins. [Related pubchem assays (depositor defined):AID1018, AID1449, AID1514, AID1638, AID1749, AID1750, AID488957, AID488963]
[3] = biological target: T2, Polyadenylate-binding protein 1 (Homo sapiens, UniProt P11940); experiment: PABP1 MLLE–PAM2 interaction inhibitors, dose response, miRNA deadenylation inhibitor project, biochemical, fluorescence polarization, Cy5-PAM2 peptide, secondary (AID 602260); type: functional; conditions: read-out: IC50_Mean
[4] = biological target: T2, Polyadenylate-binding protein 1; experiment: PABP1 MLLE–PAM2 binding inhibitor potency, dose response, biochemical, fluorescence polarization, FITC-PAM2 peptide (AID 602259); type: functional; conditions: read-out: IC50_Mean
[5] = biological target: Peroxisome proliferator-activated receptor gamma/Nuclear receptor coactivator 2 (Homo sapiens, UniProt P37231); experiment: (§1) TR-FRET dose response biochemical High Throughput Screening assay for agonists of the steroid receptor coactivator 2 (SRC-2) recruitment by the peroxisome proliferator-activated receptor gamma (PPAR gamma): non-selective agonists. [Related pubchem assays: 1297, 1032 ]; type: functional
[6] = biological target: Peroxisome proliferator-activated receptor gamma/Nuclear receptor coactivator 3 (Homo sapiens, UniProt P37231); experiment: as §1, with “3 (SRC-3)” for “2 (SRC-2)”, “1301 (Confirmation screen.), 1048 (Primary screen.)]” for “1297, 1032 ]”; type: functional
[7] = biological target: Peroxisome proliferator-activated receptor gamma/Nuclear receptor coactivator 1 (Homo sapiens, UniProt P37231); experiment: as §1, with “1 (SRC-1)” for “2 (SRC-2)”, “assays (depositor defined):AID1300, AID1808, AID504735, AID631]” for “assays: 1297, 1032 ]”; type: protein assay
[8] = biological target: SWI/SNF-related matrix-associated actin-dependent regulator of chromatin subfamily A member 2 (Homo sapiens, UniProt P51531); experiment: Luminescence-based cell-based high throughput dose response assay to identify activators of the function of SWI/SNF related, matrix associated, actin dependent regulator of chromatin, subfamily a, member 2 (SMARCA2, BRM).; type: functional
[9] = Counterscreen for activators of the function of SWI/SNF related, matrix associated, actin dependent regulator of chromatin, subfamily a, member 2 (SMARCA2, BRM): Luminescence-based cell-based high throughput dose response assay to identify non-selective compounds using the VP16 reporter assay.; type: functional
Coagulation factor XII = biological target: T3, Coagulation factor XII (Homo sapiens, UniProt P00748); type: functional;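 further: activated factor XIIa alpha cleaving a fluorogenic AMC peptide substrate; inhibitor potency from loss of enzyme activity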
T3 sequence (P00748 whole entry): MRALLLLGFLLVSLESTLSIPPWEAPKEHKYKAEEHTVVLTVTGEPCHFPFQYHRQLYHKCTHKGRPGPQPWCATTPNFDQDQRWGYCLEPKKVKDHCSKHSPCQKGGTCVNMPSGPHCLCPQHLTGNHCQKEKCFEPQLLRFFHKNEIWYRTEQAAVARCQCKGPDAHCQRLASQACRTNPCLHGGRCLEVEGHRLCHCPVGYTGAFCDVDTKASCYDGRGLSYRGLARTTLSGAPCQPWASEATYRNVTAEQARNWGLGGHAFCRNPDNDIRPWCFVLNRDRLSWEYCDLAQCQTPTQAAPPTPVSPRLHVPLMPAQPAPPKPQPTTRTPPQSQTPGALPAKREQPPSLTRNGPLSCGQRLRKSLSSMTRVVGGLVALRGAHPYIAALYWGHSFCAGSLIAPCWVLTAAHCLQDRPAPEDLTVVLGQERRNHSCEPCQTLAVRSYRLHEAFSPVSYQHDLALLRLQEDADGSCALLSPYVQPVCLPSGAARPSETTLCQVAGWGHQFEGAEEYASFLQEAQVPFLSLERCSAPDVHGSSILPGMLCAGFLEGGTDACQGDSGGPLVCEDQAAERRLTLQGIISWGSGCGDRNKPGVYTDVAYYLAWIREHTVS

[10] = biological target: T4, Type-1 angiotensin II receptor (Homo sapiens, UniProt P30556); experiment: AT1 receptor agonists, dose response, selectivity assay for APJ receptor agonist project, cell-based, uHTS hits (AID 488865); type: functional;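 further: beta-arrestin recruitment to AT1 measured by enzyme fragment complementation luminescence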
T4 sequence (P30556 whole entry): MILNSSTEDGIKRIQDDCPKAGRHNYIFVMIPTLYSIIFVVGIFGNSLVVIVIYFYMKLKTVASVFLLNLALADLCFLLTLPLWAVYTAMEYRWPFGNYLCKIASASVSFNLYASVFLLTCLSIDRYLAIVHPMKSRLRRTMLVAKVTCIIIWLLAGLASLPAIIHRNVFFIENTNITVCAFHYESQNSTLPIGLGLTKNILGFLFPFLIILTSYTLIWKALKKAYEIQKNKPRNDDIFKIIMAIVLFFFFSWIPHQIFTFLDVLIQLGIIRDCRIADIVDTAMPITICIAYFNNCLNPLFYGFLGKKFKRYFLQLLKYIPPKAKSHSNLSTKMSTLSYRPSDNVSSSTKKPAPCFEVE

SUMO-activating enzyme = SUMO-activating enzyme (Homo sapiens, UniProt Q9UBT2); experiment: SUMOylation inhibitor hit validation, confirmation, SUMOylation inhibitor project, biochemical, AlphaScreen (AID 2018); type: functional
[11] = biological target: T5, Corticotropin-releasing factor receptor 2/Corticotropin-releasing factor-binding protein (Homo sapiens, UniProt P24387+Q13324); experiment: activators of CRF receptor 2 with binding protein – uHTS hits, confirmation (AID 602473); type: functional; conditions: read-out: EC50_Mean
T5 sequence (Q13324 whole entry): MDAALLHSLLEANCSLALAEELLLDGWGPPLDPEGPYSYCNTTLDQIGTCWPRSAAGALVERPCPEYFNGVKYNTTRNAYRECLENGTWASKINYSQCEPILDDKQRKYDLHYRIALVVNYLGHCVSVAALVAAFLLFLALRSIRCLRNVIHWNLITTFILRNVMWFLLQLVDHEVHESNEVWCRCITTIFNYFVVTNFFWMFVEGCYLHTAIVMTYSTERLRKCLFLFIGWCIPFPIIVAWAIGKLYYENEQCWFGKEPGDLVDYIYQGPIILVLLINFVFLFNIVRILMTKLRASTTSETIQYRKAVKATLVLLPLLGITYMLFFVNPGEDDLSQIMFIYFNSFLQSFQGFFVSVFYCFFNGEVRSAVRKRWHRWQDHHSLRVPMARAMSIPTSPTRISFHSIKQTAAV
T5 sequence (P24387 whole entry): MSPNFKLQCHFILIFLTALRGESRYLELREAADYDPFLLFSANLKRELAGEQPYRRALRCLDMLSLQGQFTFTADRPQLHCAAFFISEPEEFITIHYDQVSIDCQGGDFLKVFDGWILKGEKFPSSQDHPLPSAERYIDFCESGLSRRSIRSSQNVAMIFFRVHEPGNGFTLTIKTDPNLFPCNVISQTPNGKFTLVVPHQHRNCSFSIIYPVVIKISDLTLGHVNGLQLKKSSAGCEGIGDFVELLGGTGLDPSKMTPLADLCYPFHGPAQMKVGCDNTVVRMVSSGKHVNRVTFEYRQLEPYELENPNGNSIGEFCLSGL

[12] = biological target: T5, Corticotropin-releasing factor receptor 2/Corticotropin-releasing factor-binding protein; experiment: Dose Response confirmation of uHTS hits for small molecule antagonists of the CRF-binding protein and CRF-R2 receptor complex.; type: functional; conditions: read-out: IC50_Mean
[13] = biological target: Peroxisome proliferator-activated receptor gamma/Nuclear receptor corepressor 2 (Homo sapiens, UniProt P37231+Q9Y618); experiment: Counterscreen for NR2E3 inverse agonists: TR-FRET-based biochemical high throughput dose response assay to identify inverse agonists of the interaction between peroxisome proliferator-activated receptor gamma (PPARg) and nuclear receptor co-repressor 2 (NCOR2).; type: functional
[14] = biological target: Photoreceptor-specific nuclear receptor (Homo sapiens, UniProt Q9Y5X4); experiment: NR2E3 inverse agonists, dose response, biochemical, TR-FRET (AID 463256); type: functional
INS1 = experiment: beta cell apoptosis inhibitors, cytokine rescue, dose response, luminescence, retest (AID 449756); type: functional, cell-based; conditions: Rattus norvegicus;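 further: cell death triggered by IL-1 beta plus TNF-alpha plus IFN-gamma mixture; protective hits raise ATP signal compared with cytokine alone wells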
[15] = biological target: T6, COUP transcription factor 2 (Homo sapiens, UniProt P24468); experiment: Luminescence-based cell-based high throughput dose response assay to identify inhibitors of COUP-TFII (NR2F2).; type: functional;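 further: HEK293 cells transiently cotransfected with COUP-TFII expression vector and reporter; luciferase reporter luminescence driven by COUP-TFII from the pX2-168 reporter plasmid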
T6 sequence (P24468 whole entry): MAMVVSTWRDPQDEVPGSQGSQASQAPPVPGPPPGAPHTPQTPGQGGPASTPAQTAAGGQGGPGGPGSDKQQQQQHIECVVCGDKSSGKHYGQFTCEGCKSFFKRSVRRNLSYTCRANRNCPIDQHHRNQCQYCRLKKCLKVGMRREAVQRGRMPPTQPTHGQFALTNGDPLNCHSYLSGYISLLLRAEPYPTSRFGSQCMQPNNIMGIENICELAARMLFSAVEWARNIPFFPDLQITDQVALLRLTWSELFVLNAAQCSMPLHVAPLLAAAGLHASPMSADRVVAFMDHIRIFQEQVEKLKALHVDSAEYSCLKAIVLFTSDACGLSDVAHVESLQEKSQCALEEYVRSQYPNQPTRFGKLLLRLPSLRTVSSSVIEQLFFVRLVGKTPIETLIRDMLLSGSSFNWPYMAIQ

Troponin, cardiac muscle = Troponin, cardiac muscle (Homo sapiens, UniProt P19429+P45379+P63316); experiment: Fluorescence-based biochemical high throughput dose response assay for activators of the calcium sensitivity of cardiac Regulated Thin Filaments (RTF). [Related pubchem assays (depositor defined):AID493008, AID493018, AID504382, AID504383]; type: protein-complex assay
[16] = biological target: T7, Alkaline phosphatase, tissue-nonspecific isozyme (Homo sapiens, UniProt P05186); experiment: human TNAP enzyme inhibitors, SAR follow-up, biochemical, luminescent, dose response (AID 1056)
T7 sequence (P05186 whole entry): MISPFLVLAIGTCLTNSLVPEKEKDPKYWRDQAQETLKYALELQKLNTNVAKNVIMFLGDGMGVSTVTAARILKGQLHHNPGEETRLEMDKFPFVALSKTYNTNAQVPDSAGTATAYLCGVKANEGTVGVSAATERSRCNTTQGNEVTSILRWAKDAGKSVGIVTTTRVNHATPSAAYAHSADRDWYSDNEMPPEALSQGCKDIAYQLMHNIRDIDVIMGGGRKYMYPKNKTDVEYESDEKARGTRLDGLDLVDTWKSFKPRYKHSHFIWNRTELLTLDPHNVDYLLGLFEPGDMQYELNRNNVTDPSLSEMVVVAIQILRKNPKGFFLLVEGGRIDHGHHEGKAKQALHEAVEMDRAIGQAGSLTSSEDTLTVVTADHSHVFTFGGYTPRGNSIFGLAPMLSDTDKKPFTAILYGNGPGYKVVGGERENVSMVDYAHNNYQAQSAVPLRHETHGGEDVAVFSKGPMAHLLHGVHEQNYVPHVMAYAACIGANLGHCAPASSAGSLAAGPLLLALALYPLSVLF

[17] = biological target: Glyceraldehyde-3-phosphate dehydrogenase (Homo sapiens, UniProt P04406)

T1 sequence (P98170 whole entry): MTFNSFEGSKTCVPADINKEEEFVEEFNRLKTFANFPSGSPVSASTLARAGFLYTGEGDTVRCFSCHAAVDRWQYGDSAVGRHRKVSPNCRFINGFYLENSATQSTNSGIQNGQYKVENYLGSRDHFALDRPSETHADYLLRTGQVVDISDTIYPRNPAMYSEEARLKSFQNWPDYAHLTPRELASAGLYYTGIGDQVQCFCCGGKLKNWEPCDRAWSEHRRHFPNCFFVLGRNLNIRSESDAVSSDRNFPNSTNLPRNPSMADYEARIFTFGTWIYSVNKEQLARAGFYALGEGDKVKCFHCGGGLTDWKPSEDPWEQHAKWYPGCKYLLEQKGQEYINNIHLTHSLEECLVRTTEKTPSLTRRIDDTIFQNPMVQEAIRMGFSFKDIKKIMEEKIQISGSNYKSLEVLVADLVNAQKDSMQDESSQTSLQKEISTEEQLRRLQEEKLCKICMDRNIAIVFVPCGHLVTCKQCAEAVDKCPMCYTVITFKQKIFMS
Chain of Peroxisome proliferator-activated receptor gamma/Nuclear receptor coactivator 1 (P37231 whole entry): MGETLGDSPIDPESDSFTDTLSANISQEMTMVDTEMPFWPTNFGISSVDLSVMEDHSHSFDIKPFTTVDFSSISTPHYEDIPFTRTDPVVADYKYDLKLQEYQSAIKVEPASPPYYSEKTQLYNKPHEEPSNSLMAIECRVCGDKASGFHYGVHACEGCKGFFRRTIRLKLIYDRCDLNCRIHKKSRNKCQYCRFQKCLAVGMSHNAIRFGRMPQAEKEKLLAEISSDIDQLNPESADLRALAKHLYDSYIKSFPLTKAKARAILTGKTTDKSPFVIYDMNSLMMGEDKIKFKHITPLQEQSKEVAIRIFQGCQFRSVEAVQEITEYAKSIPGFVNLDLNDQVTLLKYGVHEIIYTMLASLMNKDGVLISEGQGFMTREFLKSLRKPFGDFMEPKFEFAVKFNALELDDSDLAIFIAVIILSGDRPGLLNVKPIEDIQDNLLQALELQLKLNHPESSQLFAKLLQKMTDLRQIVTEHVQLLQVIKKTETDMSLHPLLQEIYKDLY
Chain of Peroxisome proliferator-activated receptor gamma/Nuclear receptor coactivator 1 (Q15788 whole entry, further chain): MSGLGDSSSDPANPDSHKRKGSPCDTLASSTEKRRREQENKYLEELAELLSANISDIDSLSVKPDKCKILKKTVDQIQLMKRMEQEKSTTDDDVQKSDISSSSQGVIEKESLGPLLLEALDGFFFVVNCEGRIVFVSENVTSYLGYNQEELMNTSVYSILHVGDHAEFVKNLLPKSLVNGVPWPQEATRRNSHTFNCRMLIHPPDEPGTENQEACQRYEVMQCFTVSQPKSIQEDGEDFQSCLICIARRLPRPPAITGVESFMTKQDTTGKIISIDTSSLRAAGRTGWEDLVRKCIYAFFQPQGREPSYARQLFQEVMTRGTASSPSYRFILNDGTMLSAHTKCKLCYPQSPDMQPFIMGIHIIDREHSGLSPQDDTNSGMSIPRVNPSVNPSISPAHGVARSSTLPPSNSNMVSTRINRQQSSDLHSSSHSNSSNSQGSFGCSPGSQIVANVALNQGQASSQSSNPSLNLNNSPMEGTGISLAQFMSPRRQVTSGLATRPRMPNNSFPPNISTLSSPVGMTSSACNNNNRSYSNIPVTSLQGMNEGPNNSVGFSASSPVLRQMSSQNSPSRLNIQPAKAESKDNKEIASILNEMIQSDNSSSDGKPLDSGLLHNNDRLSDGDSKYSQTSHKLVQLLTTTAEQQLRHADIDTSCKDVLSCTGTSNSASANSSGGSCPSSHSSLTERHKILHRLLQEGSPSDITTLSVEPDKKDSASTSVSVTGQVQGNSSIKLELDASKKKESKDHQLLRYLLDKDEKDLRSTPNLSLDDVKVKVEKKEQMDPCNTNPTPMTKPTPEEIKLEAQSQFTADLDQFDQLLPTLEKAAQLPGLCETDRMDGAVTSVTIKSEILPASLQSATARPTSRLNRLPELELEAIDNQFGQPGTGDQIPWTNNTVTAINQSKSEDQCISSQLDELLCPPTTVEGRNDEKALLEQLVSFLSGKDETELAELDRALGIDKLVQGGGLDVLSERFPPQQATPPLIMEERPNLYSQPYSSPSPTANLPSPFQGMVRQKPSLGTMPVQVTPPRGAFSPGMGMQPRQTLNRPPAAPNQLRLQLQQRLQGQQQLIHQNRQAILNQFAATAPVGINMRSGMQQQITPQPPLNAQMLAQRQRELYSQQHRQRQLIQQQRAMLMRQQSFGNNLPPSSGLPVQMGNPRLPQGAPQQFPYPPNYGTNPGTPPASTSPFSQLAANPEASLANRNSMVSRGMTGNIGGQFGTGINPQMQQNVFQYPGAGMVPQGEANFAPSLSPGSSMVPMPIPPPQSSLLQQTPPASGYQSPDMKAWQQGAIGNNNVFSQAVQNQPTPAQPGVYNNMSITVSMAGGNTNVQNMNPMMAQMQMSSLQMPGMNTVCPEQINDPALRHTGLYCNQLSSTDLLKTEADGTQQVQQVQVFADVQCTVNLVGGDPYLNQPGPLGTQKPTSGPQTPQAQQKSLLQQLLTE
Chain of Peroxisome proliferator-activated receptor gamma/Nuclear receptor coactivator 2 (P37231 whole entry): as the sequence (P37231 whole entry) above
Chain of Peroxisome proliferator-activated receptor gamma/Nuclear receptor coactivator 2 (Q15596 whole entry, further chain): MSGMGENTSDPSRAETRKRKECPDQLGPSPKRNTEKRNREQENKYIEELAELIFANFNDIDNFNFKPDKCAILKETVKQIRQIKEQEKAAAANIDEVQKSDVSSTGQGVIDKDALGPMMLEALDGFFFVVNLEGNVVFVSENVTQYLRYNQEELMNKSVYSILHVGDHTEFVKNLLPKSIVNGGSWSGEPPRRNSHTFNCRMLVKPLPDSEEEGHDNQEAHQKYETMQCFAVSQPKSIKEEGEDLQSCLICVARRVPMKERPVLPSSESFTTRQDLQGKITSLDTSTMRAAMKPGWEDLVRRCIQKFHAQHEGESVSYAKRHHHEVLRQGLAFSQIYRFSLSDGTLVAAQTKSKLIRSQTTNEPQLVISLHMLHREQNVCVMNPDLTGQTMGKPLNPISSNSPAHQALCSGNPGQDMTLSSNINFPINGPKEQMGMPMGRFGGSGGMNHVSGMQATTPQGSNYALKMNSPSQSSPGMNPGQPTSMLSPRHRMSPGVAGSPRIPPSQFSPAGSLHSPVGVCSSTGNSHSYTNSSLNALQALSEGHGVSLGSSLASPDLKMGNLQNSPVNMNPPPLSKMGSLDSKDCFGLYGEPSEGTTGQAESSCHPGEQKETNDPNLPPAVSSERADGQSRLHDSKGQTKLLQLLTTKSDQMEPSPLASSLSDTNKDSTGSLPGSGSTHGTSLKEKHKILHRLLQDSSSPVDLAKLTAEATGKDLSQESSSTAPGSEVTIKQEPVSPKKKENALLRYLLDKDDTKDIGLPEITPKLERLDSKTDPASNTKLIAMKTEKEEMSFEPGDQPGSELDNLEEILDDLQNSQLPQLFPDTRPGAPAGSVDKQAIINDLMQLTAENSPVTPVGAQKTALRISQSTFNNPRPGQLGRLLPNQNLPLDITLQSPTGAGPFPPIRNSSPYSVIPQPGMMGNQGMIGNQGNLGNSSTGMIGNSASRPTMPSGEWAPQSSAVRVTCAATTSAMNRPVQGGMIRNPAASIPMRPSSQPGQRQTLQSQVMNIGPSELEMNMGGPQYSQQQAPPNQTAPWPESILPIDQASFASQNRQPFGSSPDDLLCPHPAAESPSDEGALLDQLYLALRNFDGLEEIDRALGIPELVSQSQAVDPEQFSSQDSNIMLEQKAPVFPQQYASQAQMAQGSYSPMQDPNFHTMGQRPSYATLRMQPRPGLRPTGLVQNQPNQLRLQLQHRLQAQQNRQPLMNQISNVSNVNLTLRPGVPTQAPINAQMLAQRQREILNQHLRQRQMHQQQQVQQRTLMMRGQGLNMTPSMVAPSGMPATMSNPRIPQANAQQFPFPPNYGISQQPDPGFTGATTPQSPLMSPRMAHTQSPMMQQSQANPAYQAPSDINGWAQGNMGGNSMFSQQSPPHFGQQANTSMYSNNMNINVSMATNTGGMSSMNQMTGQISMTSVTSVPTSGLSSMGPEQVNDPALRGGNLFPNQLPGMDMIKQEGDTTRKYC
T2 sequence (P11940 whole entry): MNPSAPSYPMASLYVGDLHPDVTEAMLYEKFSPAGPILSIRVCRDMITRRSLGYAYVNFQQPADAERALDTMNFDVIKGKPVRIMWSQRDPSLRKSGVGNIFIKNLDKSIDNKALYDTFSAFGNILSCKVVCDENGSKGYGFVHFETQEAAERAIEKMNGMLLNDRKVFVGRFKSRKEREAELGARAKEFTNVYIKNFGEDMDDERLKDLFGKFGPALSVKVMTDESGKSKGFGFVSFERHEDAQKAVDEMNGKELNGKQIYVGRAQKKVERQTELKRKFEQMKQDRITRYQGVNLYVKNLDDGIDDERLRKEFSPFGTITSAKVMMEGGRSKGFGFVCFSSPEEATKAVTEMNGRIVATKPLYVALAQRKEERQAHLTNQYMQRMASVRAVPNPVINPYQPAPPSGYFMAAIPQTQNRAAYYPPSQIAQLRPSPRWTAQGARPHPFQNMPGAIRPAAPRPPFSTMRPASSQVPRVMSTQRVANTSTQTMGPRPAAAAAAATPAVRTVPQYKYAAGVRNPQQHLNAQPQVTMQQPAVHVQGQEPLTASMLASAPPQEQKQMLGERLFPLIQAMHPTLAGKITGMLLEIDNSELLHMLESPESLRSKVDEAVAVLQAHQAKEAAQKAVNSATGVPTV

IC50 [1]: > 100 µM (not active) | IC50 [2]: > 100 µM (inactive) | IC50 [3]: > 66 µM (inactive) | IC50 [4]: > 66 µM (inactive)
SMILES: Cc1cccc(N(CC(N)=O)C2SC(=O)N(c3ccccc3)C2=O)c1 (stereo not drawn)

EC50 [5]: 10.8 µM (not active) | EC50 [6]: 40.7 µM (not active) | EC50 [7]: 13.8 µM (inactive)
SMILES: Cc1ccc(-c2cc(C(=O)NCc3cn(C)nc3C)c3cc(Br)ccc3n2)cc1

SMILES: CC1CCN(S(=O)(=O)c2ccc3nc(-c4ccccn4)cc(C(=O)NCCN(C)Cc4ccccc4)c3c2)CC1
EC50 [8]: > 91.2 µM (inactive) | EC50 [9]: > 91.2 µM (inactive) | IC50 (Coagulation factor XII): > 50 µM (inactive) | EC50 [10]: > 100 µM (inactive)

IC50 (SUMO-activating enzyme): 41.5 µM (active)
SMILES: CN(C)c1ccc(NC(=O)c2sc(SCC(=O)Nc3ccc(Br)cc3)nc2N)cc1

EC50 [11]: > 53 µM (inactive) | IC50 [1]: > 100 µM (not active) | IC50 [2]: > 100 µM (inactive) | IC50 [12]: > 47.1 µM (inactive)
SMILES: CC1=C(C(=O)NCc2ccccn2)C2(CCC(C)CC2)OC1=O (stereo not drawn)

IC50 [13]: 1.23 µM (active) | EC50 [5]: 3.98 µM (active) | IC50 [14]: 0.813 µM (active) | EC50 [6]: 10.3 µM (not active) | EC50 [7]: 4.06 µM (active)
SMILES: Cc1nc2ccc3nc(NC(=O)c4ccc5c(c4)OCCO5)sc3c2s1

SMILES: CC(C)(C)OC(=O)NCCCCCc1cn([C@@H](CO)C(=O)NCCCCCCCCCCC(=O)N2CCN(C(=O)OC(C)(C)C)CC2)nn1
EC50 [10]: > 100 µM (inactive) | AC50 (INS1): 5.45 µM (active) | IC50 [15]: 3.28 µM (active)

EC50 (Troponin, cardiac muscle): > 71.5 µM (inactive)
SMILES: CCc1ccc(C(=O)NNC(=O)c2cccc(N3C(=O)CCC3=O)c2)cc1

IC50 [16]: > 10 µM (inactive) | IC50 [17]: > 10 µM (inconclusive)
SMILES: COc1ccc(S(=O)(=O)Nc2ccc3ccccc3c2)c(OC)c1

EC50 (Troponin, cardiac muscle): > 71.5 µM (inactive)
SMILES: O=C(Nc1ccc(C(=O)N2CCOCC2)cc1)Nc1cccc(Cl)c1
